These results are taken from US6670362B2, “Pyridazine endothelin antagonists” (Pfizer Inc., priority 2000, dated 2003).

One experiment addresses T1, ETB receptors (Homo sapiens, UniProt P24530).
T1 construct: host or cells: man (in vivo)
T1 sequence (P24530 27-442): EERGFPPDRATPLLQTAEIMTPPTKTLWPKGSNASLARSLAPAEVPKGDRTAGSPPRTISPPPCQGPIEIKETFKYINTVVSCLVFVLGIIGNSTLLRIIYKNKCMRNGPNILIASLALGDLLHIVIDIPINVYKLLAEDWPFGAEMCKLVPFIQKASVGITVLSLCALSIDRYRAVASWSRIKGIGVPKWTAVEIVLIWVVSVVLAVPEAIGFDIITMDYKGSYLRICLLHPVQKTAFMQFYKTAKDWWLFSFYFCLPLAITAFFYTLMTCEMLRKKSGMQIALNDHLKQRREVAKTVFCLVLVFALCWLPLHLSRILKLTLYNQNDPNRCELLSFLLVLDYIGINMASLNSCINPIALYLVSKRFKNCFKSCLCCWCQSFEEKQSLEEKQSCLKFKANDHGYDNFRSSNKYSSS
As to conditions: in man; Hypertension, 1999, 33, 581-585; cited from earlier work.

For the next experiment, the system named is neointimal formation. As to conditions: S. Douglas et al., Circ. Res., 1994; cited from earlier work.
The target in a further experiment is T2, dog ETA receptor (Canis lupus familiaris, UniProt Q5KSU9).
T2 construct: 100 μg of purified dog kidney homogenate is added; from tissue; host or cells: dog kidney homogenate
T2 sequence (Q5KSU9 21-426): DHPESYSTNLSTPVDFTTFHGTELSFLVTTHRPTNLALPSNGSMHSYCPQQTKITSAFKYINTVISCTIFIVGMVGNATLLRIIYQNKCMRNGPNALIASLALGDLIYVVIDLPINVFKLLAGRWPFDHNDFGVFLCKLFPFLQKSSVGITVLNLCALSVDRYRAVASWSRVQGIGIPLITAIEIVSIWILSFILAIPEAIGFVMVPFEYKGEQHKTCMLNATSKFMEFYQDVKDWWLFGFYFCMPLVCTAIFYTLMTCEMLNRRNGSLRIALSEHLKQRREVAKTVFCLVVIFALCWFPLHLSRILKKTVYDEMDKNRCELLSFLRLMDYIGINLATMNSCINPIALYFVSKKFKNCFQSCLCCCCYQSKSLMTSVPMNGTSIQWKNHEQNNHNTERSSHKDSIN
In words: Dog ETA Binding Assay (125I-PD-151242, dog kidney homogenate). How it is done:
Competition between test substances and ligands binding to canine endothelin receptors is determined as follows: […] The solution is incubated at room temperature for 2 hours. After the incubation, the unbound ligand is separated from receptor bound ligand by filtration with a Brandel cell harvester, followed by 5 washes with buffer (Tris 50 mM, MgCl2 10 mM). Filter papers are counted for radioactivity and the Ki (an IC50 corrected for the dissociation constant and concentration of the ligand added) is determined for the concentration range tested.

Another experiment concerns the target T3, dog ETB (Canis lupus familiaris, UniProt P56497).
T3 construct: 50 μg of purified Dog cerebellum homogenate is added; from tissue; host or cells: dog cerebellum homogenate
T3 sequence (P56497 27-442): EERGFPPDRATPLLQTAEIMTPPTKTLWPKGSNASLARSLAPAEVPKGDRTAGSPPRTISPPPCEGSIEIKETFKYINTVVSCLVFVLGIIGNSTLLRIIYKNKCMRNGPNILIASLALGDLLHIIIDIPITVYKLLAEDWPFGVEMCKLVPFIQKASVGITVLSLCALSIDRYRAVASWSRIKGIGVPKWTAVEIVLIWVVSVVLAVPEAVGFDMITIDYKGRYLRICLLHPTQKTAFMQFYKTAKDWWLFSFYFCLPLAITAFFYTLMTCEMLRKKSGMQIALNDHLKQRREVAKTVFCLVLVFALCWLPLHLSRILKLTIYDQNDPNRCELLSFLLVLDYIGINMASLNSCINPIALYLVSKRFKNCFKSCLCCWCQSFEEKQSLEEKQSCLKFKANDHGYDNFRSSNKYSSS
Kind of experiment: Dog ETB Binding Assay (125I-IRL-1620, dog cerebellum homogenate). As for the experimental part:
Competition between test substances and ligands binding to canine endothelin receptors is determined as follows: […] The solution is incubated at 30° C. for 90 minutes. After the incubation, the unbound ligand is separated from receptor bound ligand by filtration with a Brandel cell harvester, followed by 5 washes with buffer (Tris 50 mM, MgCl2 10 mM). Filter papers are counted for radioactivity and the Ki (an IC50 corrected for the dissociation constant and concentration of the ligand added) is determined for the concentration range tested.

The test system of another experiment is ETA/B receptor. As to conditions: hypertensive patients; H. Krum et al., 1998; cited from earlier work.

`CCCC[C@@H](NC(=O)[C@@H](Cc1cn(C(=O)OC)c2ccccc12)NC(=O)[C@H](CC(C)(C)C)NC(=O)N1[C@H](C)CCC[C@@H]1C)C(=O)O` [BQ-788]: the peripheral resistance entry at ETB receptors is on record as “increase peripheral resistance”.
With `CCCOc1ccc2c(c1)[C@@H](c1ccc(OC)cc1OCC(=O)O)[C@H](C(=O)O)[C@H]2c1ccc2c(c1)OCO2` [SB-209670], the “reduction in neointimal formation relative to control animals” value in the experiment with neointimal formation is listed as 50%.
In the case of `COc1ccccc1Oc1c(NS(=O)(=O)CCc2ccccc2)nc(-c2cccnn2)nc1OC` [Example 5], the Ki (usually the equilibrium dissociation constant of an inhibitor or competing ligand from its target) stood at 2 nM at dog ETA receptor and 132 nM at dog ETB.
`COc1ccccc1Oc1c(NS(=O)(=O)c2ccc(C(C)(C)C)cc2)nc(-c2ncccn2)nc1OCCO` [Bosentan]: in the experiment with ETA/B receptor, the blood pressure result is “decreased blood pressure”.
